Source: a compilation of properties of binary mixtures (doi:10.1021/je901058s)

Experiment: xn = mol fraction of the nth substance listed
Settings: 101 kPa

CCCCCCCCn1cc[n+](C)c1.O=[N+]([O-])[O-] + CCCCO
viscosity [mPa·s]
Settings | 283.15 K | 288.15 K | 293.15 K | 298.15 K | 303.15 K | 308.15 K | 313.15 K | 318.15 K | 323.15 K | 328.15 K
x2 = 0.168 | – | 530 | 380 | 277 | 207 | 158 | – | 97.4 | 73.2 | 48.9
x2 = 0.261 | 440 | 311 | 229 | 172 | 132 | 103 | 78.5 | 63.4 | 51.6 | 35.5
x2 = 0.358 | 241 | 179 | – | 105 | 80.6 | – | – | – | 35.7 | 25.5
x2 = 0.458 | 126 | 98.8 | 74.2 | – | – | 39.3 | 32.6 | 27.3 | – | –
x2 = 0.57 | 59.4 | 47.4 | – | – | 26.4 | 22.29 | 18.98 | 16.3 | – | 10.88
x2 = 0.676 | 29.9 | 24.7 | – | 17.43 | – | – | 11.15 | 9.75 | – | 6.84
x2 = 0.754 | 18.67 | 15.69 | 13.36 | 11.44 | 9.92 | 8.74 | 7.63 | 6.76 | 5.98 | 4.76
x2 = 0.848 | 10.45 | 9.03 | – | – | 5.92 | 5.15 | 4.56 | 4.03 | – | 2.93

CCCCCCCCn1cc[n+](C)c1.O=[N+]([O-])[O-] + CCCO
viscosity [mPa·s]
Settings | 283.15 K | 288.15 K | 293.15 K | 298.15 K | 303.15 K | 308.15 K | 313.15 K | 318.15 K | 323.15 K | 328.15 K
x2 = 0.107 | 1091 | 730 | 510 | 365 | 267 | 201 | 153 | 120 | 95.4 | –
x2 = 0.258 | 490 | – | 258 | 191 | – | 113 | 86.9 | – | 53.4 | 36.5
x2 = 0.364 | 218 | 164 | 127 | 99.7 | – | 63 | 51.1 | 42.1 | 35 | 25
x2 = 0.47 | 114 | 85.8 | – | 60 | 48.5 | 39.7 | – | 27.6 | 23.44 | 17.34
x2 = 0.556 | 65.4 | – | – | 34.4 | 28.6 | – | 20.38 | 17.44 | 15.08 | –
x2 = 0.671 | 28.8 | 23.8 | – | 16.84 | 14.41 | 12.45 | – | – | 8.41 | 6.55
x2 = 0.756 | 16.16 | 13.66 | 11.67 | 10.07 | 8.77 | 7.63 | 6.75 | 5.93 | 5.21 | 4.2
x2 = 0.866 | 7.84 | 6.8 | 5.85 | – | 4.48 | 3.94 | 3.52 | 3.14 | 2.82 | 2.31

CCCCCCCCn1cc[n+](C)c1.O=[N+]([O-])[O-] + CCO
viscosity [mPa·s]
Settings | 283.15 K | 288.15 K | 293.15 K | 298.15 K | 303.15 K | 308.15 K | 313.15 K | 318.15 K | 323.15 K | 328.15 K
x2 = 0.128 | 970 | 660 | 460 | 333 | 246 | 185 | 143 | – | 81.4 | –
x2 = 0.266 | 380 | 266 | 198 | 150 | 116 | 89.1 | 68.9 | 55.9 | 45.9 | 32
x2 = 0.357 | 216 | – | 124 | 97 | 73.4 | 58.4 | 48.3 | – | 33.3 | –
x2 = 0.455 | 102 | 76.2 | – | 47.5 | 38.3 | 31.2 | 25.8 | – | 18.59 | 14.08
x2 = 0.554 | – | 38.6 | 31.5 | 26.1 | – | 18.4 | 15.71 | 13.53 | 11.78 | –
x2 = 0.662 | 24.8 | 20.62 | 17.19 | 14.52 | 12.44 | 10.83 | 9.55 | 8.69 | 7.83 | 6.2
x2 = 0.767 | 11.64 | 9.86 | – | – | – | 5.72 | – | 4.46 | 3.99 | 3.27
x2 = 0.868 | 5.09 | – | 3.97 | 3.49 | 3.13 | 2.8 | 2.53 | 2.3 | 2.1 | 1.77
